From article PMC6407917, “Identification of GSK3186899/DDD853651 as a Preclinical Development Candidate for the Treatment of Visceral Leishmaniasis” (Journal of Medicinal Chemistry, 2018)

How the values were obtained:
Experiment in all cases: biochemical
Design in all cases: species or system HEK293/K-562/placenta mixed human extract; Kinobeads chemoproteomic competition binding, quantified by TMT LC-MS/MS, dose response up to 20 uM
CAMKK1 = CAMKK1 (Homo sapiens, UniProt Q8N5S9)
CDC37 = CDC37 (Homo sapiens, UniProt Q16543)
TAOK3 = TAOK3 (Homo sapiens, UniProt Q9H2K8)
MYLK3 = MYLK3 (Homo sapiens, UniProt Q32MK0)
TNK2 = TNK2 (Homo sapiens, UniProt Q07912)
FES = FES (Homo sapiens, UniProt P07332)
MAP3K11 = MAP3K11 (Homo sapiens, UniProt Q16584)
PRKD1 = PRKD1 (Homo sapiens, UniProt Q15139)
MYLK = MYLK (Homo sapiens, UniProt Q15746)
CSNK2A2 = CSNK2A2 (Homo sapiens, UniProt P19784)
PRKAB2 = PRKAB2 (Homo sapiens, UniProt O43741)
ATM = ATM (Homo sapiens, UniProt Q13315)
PRKAA2 = PRKAA2 (Homo sapiens, UniProt P54646)
PRKCQ = PRKCQ (Homo sapiens, UniProt Q04759)
TTK = TTK (Homo sapiens, UniProt P33981)
FN3K = FN3K (Homo sapiens, UniProt Q9H479)
MAST3 = MAST3 (Homo sapiens, UniProt O60307)
PDPK1 = PDPK1 (Homo sapiens, UniProt O15530)
PIP4K2B = PIP4K2B (Homo sapiens, UniProt P78356)
BRAF = BRAF (Homo sapiens, UniProt P15056)
SRC = SRC (Homo sapiens, UniProt P12931)

CSNK2A2, sequence (P19784 whole entry): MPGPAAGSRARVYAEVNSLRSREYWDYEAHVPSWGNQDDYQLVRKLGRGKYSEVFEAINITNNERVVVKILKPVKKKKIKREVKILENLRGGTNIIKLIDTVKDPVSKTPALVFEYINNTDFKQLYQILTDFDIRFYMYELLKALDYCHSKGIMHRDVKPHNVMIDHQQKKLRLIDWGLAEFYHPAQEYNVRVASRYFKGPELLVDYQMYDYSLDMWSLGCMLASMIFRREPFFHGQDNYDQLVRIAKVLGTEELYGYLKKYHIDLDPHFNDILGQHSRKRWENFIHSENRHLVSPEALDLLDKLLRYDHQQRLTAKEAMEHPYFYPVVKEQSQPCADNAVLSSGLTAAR
PDPK1, sequence (O15530 whole entry): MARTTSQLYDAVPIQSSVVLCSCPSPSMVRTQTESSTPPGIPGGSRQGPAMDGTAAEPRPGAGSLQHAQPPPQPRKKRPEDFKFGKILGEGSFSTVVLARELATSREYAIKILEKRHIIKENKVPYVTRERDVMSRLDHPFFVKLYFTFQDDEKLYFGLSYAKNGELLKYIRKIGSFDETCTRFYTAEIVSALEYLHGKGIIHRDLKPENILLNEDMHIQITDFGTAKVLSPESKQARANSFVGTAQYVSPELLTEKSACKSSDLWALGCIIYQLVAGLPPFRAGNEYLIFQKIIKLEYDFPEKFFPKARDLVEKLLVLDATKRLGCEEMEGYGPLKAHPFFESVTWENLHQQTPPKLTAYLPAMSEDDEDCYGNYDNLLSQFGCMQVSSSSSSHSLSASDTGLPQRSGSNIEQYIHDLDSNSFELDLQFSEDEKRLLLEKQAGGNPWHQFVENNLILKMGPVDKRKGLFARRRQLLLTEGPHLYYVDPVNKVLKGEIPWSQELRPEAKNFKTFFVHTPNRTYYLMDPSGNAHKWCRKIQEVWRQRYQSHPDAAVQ
TAOK3, sequence (Q9H2K8 whole entry): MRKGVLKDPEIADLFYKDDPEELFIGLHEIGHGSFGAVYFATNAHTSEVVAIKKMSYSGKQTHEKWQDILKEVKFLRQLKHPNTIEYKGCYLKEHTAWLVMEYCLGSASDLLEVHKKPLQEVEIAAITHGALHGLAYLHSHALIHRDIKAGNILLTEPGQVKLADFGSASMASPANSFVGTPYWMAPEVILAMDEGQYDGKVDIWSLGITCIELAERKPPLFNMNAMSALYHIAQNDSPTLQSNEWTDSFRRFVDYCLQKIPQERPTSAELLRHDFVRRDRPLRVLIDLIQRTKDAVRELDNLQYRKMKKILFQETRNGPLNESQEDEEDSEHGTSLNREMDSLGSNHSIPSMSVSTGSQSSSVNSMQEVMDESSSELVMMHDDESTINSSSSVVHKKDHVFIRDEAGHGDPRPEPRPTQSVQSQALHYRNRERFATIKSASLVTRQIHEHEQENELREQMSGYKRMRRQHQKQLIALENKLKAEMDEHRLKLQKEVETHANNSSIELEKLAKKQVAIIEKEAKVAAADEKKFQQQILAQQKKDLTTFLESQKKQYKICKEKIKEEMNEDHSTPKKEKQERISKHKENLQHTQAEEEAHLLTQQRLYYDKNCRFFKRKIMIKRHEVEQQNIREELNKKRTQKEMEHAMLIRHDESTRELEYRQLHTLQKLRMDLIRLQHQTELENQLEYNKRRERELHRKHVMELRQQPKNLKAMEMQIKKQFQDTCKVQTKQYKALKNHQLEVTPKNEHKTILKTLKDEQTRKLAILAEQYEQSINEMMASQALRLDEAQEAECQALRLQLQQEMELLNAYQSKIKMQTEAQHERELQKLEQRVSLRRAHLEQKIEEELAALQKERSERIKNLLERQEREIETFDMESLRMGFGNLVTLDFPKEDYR
ATM, sequence (Q13315 whole entry): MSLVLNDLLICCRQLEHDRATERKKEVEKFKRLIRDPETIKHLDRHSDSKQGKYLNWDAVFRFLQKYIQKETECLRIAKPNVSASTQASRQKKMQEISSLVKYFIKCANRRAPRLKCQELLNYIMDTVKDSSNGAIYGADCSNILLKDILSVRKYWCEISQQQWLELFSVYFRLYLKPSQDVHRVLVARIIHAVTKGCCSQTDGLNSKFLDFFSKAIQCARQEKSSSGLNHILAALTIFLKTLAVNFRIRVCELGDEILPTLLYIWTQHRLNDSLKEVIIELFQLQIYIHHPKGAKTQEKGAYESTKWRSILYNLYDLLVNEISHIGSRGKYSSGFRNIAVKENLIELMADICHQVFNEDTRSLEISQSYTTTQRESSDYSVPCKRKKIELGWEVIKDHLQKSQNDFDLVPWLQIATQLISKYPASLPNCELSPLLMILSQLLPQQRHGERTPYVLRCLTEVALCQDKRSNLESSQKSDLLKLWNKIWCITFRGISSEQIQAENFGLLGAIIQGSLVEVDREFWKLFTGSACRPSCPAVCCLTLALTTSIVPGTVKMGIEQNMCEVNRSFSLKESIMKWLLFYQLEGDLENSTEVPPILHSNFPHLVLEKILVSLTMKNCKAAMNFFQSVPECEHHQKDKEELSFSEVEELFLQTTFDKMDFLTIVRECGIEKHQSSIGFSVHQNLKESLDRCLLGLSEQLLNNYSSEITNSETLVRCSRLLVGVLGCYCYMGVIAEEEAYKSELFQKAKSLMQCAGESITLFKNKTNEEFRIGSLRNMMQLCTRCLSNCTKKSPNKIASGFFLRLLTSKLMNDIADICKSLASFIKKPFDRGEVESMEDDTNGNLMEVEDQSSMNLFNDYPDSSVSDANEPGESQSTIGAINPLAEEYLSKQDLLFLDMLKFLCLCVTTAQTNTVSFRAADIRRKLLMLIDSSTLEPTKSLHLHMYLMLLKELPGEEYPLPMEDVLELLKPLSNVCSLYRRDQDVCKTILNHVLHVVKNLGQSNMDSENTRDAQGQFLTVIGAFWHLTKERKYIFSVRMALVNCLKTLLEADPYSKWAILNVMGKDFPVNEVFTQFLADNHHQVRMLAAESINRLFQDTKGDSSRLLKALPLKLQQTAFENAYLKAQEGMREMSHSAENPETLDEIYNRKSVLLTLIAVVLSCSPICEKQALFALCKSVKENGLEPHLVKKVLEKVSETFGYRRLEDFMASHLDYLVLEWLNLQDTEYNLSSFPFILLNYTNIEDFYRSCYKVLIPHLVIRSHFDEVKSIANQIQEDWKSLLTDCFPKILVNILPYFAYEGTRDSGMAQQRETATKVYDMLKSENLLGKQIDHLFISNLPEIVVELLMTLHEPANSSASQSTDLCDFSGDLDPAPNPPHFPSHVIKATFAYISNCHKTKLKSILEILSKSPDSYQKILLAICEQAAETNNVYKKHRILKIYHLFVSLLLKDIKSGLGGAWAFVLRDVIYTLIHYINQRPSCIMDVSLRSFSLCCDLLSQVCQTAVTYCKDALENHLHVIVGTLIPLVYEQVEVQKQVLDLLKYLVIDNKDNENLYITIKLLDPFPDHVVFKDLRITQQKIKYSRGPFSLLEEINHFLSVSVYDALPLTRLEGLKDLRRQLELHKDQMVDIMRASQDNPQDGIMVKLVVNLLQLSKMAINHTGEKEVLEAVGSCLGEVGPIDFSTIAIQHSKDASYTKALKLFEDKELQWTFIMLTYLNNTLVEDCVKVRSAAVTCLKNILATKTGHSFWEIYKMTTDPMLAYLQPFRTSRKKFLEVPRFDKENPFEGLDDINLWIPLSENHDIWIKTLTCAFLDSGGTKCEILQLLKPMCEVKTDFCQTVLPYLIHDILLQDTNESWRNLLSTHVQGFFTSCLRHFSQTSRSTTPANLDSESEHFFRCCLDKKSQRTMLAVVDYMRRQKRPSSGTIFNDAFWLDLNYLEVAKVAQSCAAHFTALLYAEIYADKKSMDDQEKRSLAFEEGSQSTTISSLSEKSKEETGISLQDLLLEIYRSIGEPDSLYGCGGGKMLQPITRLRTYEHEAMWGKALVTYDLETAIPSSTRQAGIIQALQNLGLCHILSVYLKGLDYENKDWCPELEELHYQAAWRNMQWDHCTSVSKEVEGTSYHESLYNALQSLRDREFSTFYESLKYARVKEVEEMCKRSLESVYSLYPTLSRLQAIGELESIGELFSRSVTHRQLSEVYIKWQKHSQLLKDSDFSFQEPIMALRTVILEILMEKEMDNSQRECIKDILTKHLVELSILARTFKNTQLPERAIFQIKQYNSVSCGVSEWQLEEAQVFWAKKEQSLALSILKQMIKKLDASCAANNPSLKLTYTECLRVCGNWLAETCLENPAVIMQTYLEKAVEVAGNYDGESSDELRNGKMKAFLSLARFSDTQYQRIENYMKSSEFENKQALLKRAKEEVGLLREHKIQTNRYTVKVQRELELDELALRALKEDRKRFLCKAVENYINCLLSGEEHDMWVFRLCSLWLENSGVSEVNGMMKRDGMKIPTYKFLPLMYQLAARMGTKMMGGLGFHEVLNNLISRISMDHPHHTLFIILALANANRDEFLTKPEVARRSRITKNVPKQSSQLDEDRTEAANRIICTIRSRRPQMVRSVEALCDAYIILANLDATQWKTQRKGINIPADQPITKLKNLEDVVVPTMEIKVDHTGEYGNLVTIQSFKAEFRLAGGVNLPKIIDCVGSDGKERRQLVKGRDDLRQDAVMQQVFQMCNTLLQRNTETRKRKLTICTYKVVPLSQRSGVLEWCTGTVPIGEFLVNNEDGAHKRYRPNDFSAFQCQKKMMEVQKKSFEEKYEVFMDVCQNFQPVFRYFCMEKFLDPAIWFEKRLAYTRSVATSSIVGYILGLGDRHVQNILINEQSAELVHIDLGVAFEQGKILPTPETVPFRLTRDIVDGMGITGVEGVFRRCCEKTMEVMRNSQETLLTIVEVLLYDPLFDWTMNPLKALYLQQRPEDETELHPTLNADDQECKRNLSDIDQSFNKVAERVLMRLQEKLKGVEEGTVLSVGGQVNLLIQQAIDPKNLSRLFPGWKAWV

IC50 (CAMKK1): ≥ 20 µM
IC50 (CDC37): ≥ 20 µM
IC50 (TAOK3): 0.93 µM
IC50 (MYLK3): ≥ 20 µM
IC50 (TNK2): ≥ 20 µM
IC50 (FES): ≥ 20 µM
IC50 (MAP3K11): ≥ 20 µM
IC50 (PRKD1): ≥ 20 µM
IC50 (MYLK): ≥ 20 µM
IC50 (CSNK2A2): ≥ 20 µM
IC50 (PRKAB2): ≥ 20 µM
IC50 (ATM): ≥ 20 µM
IC50 (PRKAA2): ≥ 20 µM
IC50 (PRKCQ): ≥ 20 µM
IC50 (TTK): ≥ 20 µM
IC50 (FN3K): ≥ 20 µM
IC50 (MAST3): ≥ 20 µM
IC50 (PDPK1): ≥ 20 µM
IC50 (PIP4K2B): 9.4 µM
IC50 (BRAF): ≥ 20 µM
IC50 (SRC): ≥ 20 µM
Structure (SMILES): COc1ccccc1-c1n[nH]c2nc(N[C@H]3CC[C@H](NS(=O)(=O)CCC(F)(F)F)CC3)nc(OC)c12 [compound 31, 3,3,3-Trifluoro-N-(trans-4-((4-methoxy-3-(2-methoxyphenyl)-1H-pyrazolo[3,4-d]pyrimidin-6-yl)amino)cyclohexyl)propane-1-sulfonamide]
